Experimental data published in patent US6025333A, “Treatment of CNS tumors with metalloprotease inhibitors” (Erziehungsdirektion of the Canton Zurich, priority 1995, dated 2000).
Read-outs that look alike come from different tables or passages of the source. Peptide text beside a SMILES is read from it. * marks the point of attachment. Cbz = O=C(OCc1ccccc1)*

Tests used:
[1] = tested on: C6 cells; experiment: C6 cell spreading on PLYS or CNS myelin with protease inhibitors; assay type: cell-based, rat; conditions: for activity at 300 µM: C6, 2.5 h
Experimental: Rat C6, mouse NIH 3T3 and B16 cells were cultured in Dulbecco's modified Eagle's medium (DMEM) supplemented with 10% fetal calf serum (FCS), usually to maximally 70-80% confluency. Cells were harvested with a short trypsin treatment (0.1% in Ca^2+ /Mg^2+ -free Hank's medium for 90 seconds) stopped by addition of FCS in excess, collected by centrifugation. Cells were resuspended in either DMEM/FCS or defined serum-free medium (MEM) and used for experiments. Dissociated rat CNS glial cells were prepared starting from optic nerves of 6-7 days old Lewis rats as described in Section 6.1.1, supra and plated into poly-D-lysine (PLYS) coated wells (100 mm^2, 100 μl medium) at a density of 20,000 cells per well. The culture medium was an enriched L15 medium with 5% rat serum, penicillin and streptomycin. C6, 3T3 and B16 cells were added to 2 day old cultures at a concentration of 30,000 cells per well, incubated for two hours and fixed with warm 4% formalin in phosphate buffer. Inhibitory oligodendrocytes were identified by double labelling using the specific antibodies O1 and O4 (see Section 6.1.3, supra).
(§1) Myelin from rat spinal cord (CNS) or sciatic nerve (PNS) purified on a discontinuous sucrose gradient as described in Section 6.1.5., was dried overnight onto PLYS coated wells (20 μg protein/well of 100 mm^2 surface). Unbound membranes were removed by three washes with Ca^2+ /Mg^2+ -free Hank's solution. Myelin coated wells were immediately used in substrate testing assays by the addition of 9,000 cells (C6, 3T3, or B16) per cm^2. Alternatively, we used extracted CNS myelin protein, or SDS-PAGE purified 35 and 250 kD inhibitory proteins reconstituted in liposomes (see Section 7.1.5, supra). Experiments were scored at different time points using a phase contrast microscope equipped with a photocamera. Quantifications were done using a surface integration program; three arbitrary fields were photographed for each well at a magnitude of 80×, at least 25 cells per picture were measured. Each point represents the mean of at least 3 wells±SEM. Results are expressed as μ^2 of projected cell surface, or as degree, which was calculated by subtracting from the projected surface value of a spreading cell, the surface value of a completely spheric cell.

[2] = tested on: C6 cells; experiment: C6 cell attachment and spreading on rat cerebellar frozen sections; assay type: cell-based; conditions: 1,10-phenanthroline 50, 100, 200 and 300 μM; cbz-tyr-tyr 100 μM
Experimental: Adult rat cerebellum frozen sections were prepared and dried on glass coverslips. 70,000 C6, 3T3, or B16 cells in 100 μl were added to each well containing slices previously rinsed with cold DMEM/FCS. Cultures were incubated for 2 days at 37° C. Cultures were then fixed and stained with cresyl violet. Three to four cerebellum slices were used per point per experiment, with each experiment being repeated at least 2 times.

[3] = tested on: C6 cells; experiment: C6 cell infiltration into optic nerve explants; assay type: cell-based, rat; conditions: nerves injected with 4 μl of 3 mM solution; medium 0.5 mM peptide; 14 days
Experimental: Optic nerve and sciatic nerve explants were prepared as described (Schwab and Thoenen, 1985, J. Neurosci. 5:2415-2423). Briefly, the nerves were rapidly dissected from about 8 week old male rats, cleaned from the meninges, 3 times frozen and thawed using liquid nitrogen, and placed under a teflon ring (diameter 13 mm, thickness 1 mm) sealed to a culture dish with silicon grease. Two chambers connected only by the explants were in this way obtained. 300,000 C6, 3T3 or B16 cells were plated in the inner chamber in DMEM/FCS and incubated for 5 to 20 days. The medium was changed every other day. Cultures were fixed overnight with 4% formalin. The nerve explants were mounted with Tissue-Tek, 10 to 15 μm sections were cut in a cryostate and collected on gelatine coated cover slips. After drying at room temperature overnight, the sections were stained in 0.75% cresyl violet, and evaluated. The infiltrated cells were counted for each 0.1 mm of the explants, starting from the tip where cells were added. Due to the 15 day incubation, the explants were often different in diameter. Therefore, only the central part of the nerves (0.25 mm) were considered, since only this part of the explants presented a good histological quality. Inhibition experiments were performed with nerve explants previously injected from both sides with 2 μl of 3 mM cbz-tyr-tyr or cbz-ala-phe solutions.

[4] = tested on: C6 cells; experiment: C6 cell spreading on CNS myelin protein liposomes, antibody and/or 1,10-phenanthroline; assay type: cell-based, rat; conditions: 0.3 mM 1,10-phenanthroline
Experimental: Substrates were tested as described in Section 7.1.2 supra). Myelin fractions or liposomes in medium A were dried onto the wells of polylysine-coated Greiner dishes (Greiner, Murtingen, FRG). […] When substrates were tested in the presence of antibody, bound substrates were incubated in the presence of undiluted hybridoma supernatants or in the presence of 1:30 dilutions (in Hank's medium) of antisera. After 15 minutes at 37° C., four-fifths of the antibody-containing medium was removed and substituted with cell-containing medium. An analogous preincubation procedure was used in experiments aimed at testing HBO nonpermissiveness. 3T3 experiments were usually scored after a culture period of 1 hour, whereas SCG neurons were allowed to grow processes for 24 hours in culture. When 3T3 cells were preincubated with hybridoma supernatant, incubations were performed in gently agitated suspensions for a period of 15 minutes at room temperature. Cells were then sedimented, resuspended in culture medium, and added to substrate-adsorbed Greiner dish wells. 3T3 cells were added at a density of 30,000 cells per cm^2, and SCG neurons were added at a density of 20,000 cells per cm^2.
as §1, with “Myelin coated wells were immediately used in substrate testing assays by the addition of 9,000 cells (C6, 3T3, or B16) per cm^2. Alternatively, we used extracted CNS myelin protein, or SDS-PAGE purified 35 and 250 kD inhibitory proteins reconstituted in liposomes (see Section 7.1.5, supra).” left out, “Each point represents the mean of at least 3 wells±SEM.” left out

[5] = tested on: 3T3 cells; experiment: Treatment of CNS myelin with C6 plasma membranes, then 3T3 spreading and 3H-thymidine incorporation; assay type: cell-based, mouse
Experimental: as §1
C6 cells grown to 80% confluency were washed twice with Hank's medium, and harvested in 20 ml 8.5% sucrose, 50 mM NaCl, 10 mM Tris buffer, pH 7.4, using a rubber policeman. After mechanical homogenization through a series of needles of decreasing size, a low purity plasma membrane fraction was obtained by centrifugation (5 minutes at 3000× g, 10 minutes at 8000× g, and then 2 hours at 100,000× g). A higher purity fraction was isolated by loading the material on a discontinuous sucrose gradient, containing 50 mM NaCl, 10 mM Tris, pH 7.4 (Quigley, 1976, J. Cell Biol. 71: 472-486). 20-40% sucrose interphase (C6 plasma membranes fraction) and 40-60% sucrose interphase (C6 mitochondrial fraction) were collected, washed in Hank's medium and resuspended in MEM.
CNS myelin coated PLYS wells were prepared as described in the previous section, but instead of being immediately tested as substrate, they were first incubated with 50 μl of C6 plasma membranes (containing 0.8 mg protein/ml MEM) at 37° for 30 minutes. Dishes were then rinsed twice with Hank's medium and immediately used as substrates for 3T3 cells. In some experiments, protease blockers were added to the membranes using 10 times concentrated solutions.

IC50 ([1]; Rattus norvegicus, C6 cells on CNS myelin, 3 hours (FIG. 22), read-out: Half maximal inhibition of C6 spreading on CNS myelin (IC50))	SMILES	Spreading on: PLYS (% of control on PLYS) ([1]; inhibitor 0.3 mM, 150 minutes)	Spreading on: CNS (% of control on PLYS) ([1]; inhibitor 0.3 mM, CNS myelin, 150 minutes)	Inhibition on CNS (%) ([1]; inhibitor 0.3 mM, PLYS value minus CNS myelin value)	distribution and behavior of C6 cells on white matter of cerebellar frozen sections [2]	C6 cell infiltration into optic nerve explants [3]	inhibition of C6 cell spreading on CNS myelin [1]	concentrations exerting a general toxic effect on all substrates ([1]; C6 cells, 3 hours, FIG. 22)	activity at 300 µM ([1]; Rattus norvegicus, inhibitor 0.3 mM, 150 minutes, read-out: Spreading on: PLYS (% of control on PLYS))	activity at 300 µM ([1]; Rattus norvegicus, inhibitor 0.3 mM, CNS myelin, 150 minutes, read-out: Spreading on: CNS (% of control on PLYS))	inhibition at 300 µM ([1]; Rattus norvegicus, C6, inhibitor 0.3 mM, PLYS value minus CNS myelin value)	effect on C6 cell spreading on PLYS, glass and PNS myelin ([1]; concentrations up to 0.5 mM)	spreading value on: CNS lipos. ([4]; substrate preadsorbed with the named antibody or none, 150 minutes)	spreading value on: PLYS ([4]; with the named antibody or none, 150 minutes)	% inhibition on CNS lipos. ([4]; with the named antibody or none, relates to PLYS)	3T3 Cell Spreading (%) ([5]; 3T3 on CNS myelin, alone or preincubated with C6 PM without/with the named inhibitor, 150 minutes, PLYS = 100)	3H-Thymidine Incorporation (%) ([5]; 3T3 on CNS myelin, alone or preincubated with C6 PM without/with the named inhibitor, 20 hours, PLYS = 100)	effect on the C6 plasma membrane effect (neutralization of CNS myelin inhibitory activity) ([5]; blockers added to C6 plasma membranes)
–	O=C(N[C@@H](Cc1ccc(O)cc1)C(=O)N[C@@H](Cc1ccc(O)cc1)C(=O)O)OCc1ccccc1 [cbz-tyr-tyr, carbobenzoxy-tryosine-tyrosine] (Cbz-Tyr-Tyr-OH)	101 % of control on PLYS	56 % of control on PLYS	45%	dramatically changed the distribution and behavior of C6 cells on the white matter areas	inhibited C6 cell infiltration in all the 8 nerves examined	–	–	–	–	–	–	–	–	–	–	–	–
200 µM	c1cnc2c(c1)ccc1cccnc12 [1,10-phenanthroline]	–	–	–	dramatically changed the distribution and behavior of C6 cells on the white matter areas	–	up to 67%	above 0.5 mM	97%	30%	67%	did not impair C6 cell spreading	1.35 μm^2 10^3	2.49 μm^2 10^3	46%	17%	50%	completely blocked
